Assay results reported in patent US20260008818A1, “CYCLIC PEPTIDE OR SALT THEREOF, AND USES THEREOF” (FUJIFILM Corporation, priority 2023, published 2026).
Numbered stars: 1 amine (or outer) side, 2 acyl side, 3 side chain; on linkers, the order of the positions; unused ones are H or OH. Bridge positions count the residues as written; N and C are the ends. Ends that are not written are not given here. acetyl = K(acetyl): lysine side chain modified with a haloacetyl group whose halogen is replaced by the thiol of another residue, giving a thioether ring, O=C(C[*:1])[*:2]; COCH2 = acetyl group that carries the bridge

Tested on: Recombinant Human FGFR1 alpha (IIIc) Fc Chimera Protein
Experiment: Binding affinity of enzymatically synthesized cyclic peptide to FGFR by ELISA
Conditions: luminescence signal at reaction concentration 10 nmol/L, SEQ ID NO: 39 standardized to 1, enzyme synthesis product
In short: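 Graded A–D from luminescence at 10 nmol/L peptide, expressed relative to SEQ ID NO: 39 after subtracting wells lacking receptor. Read-out used anti-Myc antibody (2 h, RT) with chemiluminescent substrate, following 3 h RT binding of peptide to immobilized FGFR1α(IIIc)-Fc, 5 ng per well.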

Row | Substance | Evaluation result of binding affinity to FGFR
1 | 155 (HCSYERLEFHGHEAPFRVK(COCH2)V; thioether 2-19 (inferred)) [compound 155] | A (0.7 or more)
2 | 235 (HK(COCH2)TWERLIFRGHIAPFWVCR; thioether 2-19 (inferred)) [compound 235] | A (0.7 or more)
3 | 192 (HCSYERLQFHGHEAPFIVK(COCH2)V; thioether 2-19 via Ac) [compound 192] | A (0.7 or more)
4 | 252 (LCRVVLNGWIAPFWTIK(COCH2)E; thioether 2-17 (inferred)) [compound 252] | B (0.5 or more and less than 0.7)
5 | 234 (HK(COCH2)TWERLRFLGHIAPFWVCR; thioether 2-19 (inferred)) [compound 234] | A (0.7 or more)
6 | 214 (HCSYERLQFHGHEAPFRVK(COCH2)F; thioether 2-19 via Ac; not fully specified) [compound 214] | B (0.5 or more and less than 0.7)
7 | 250 (QCLWAQLQLLTHLAPYIVK(COCH2)I; thioether 2-19 (inferred)) [compound 250] | C (0.1 or more and less than 0.5)
8 | 338 (PCLAPYGWVILDWGLVSNWK(COCH2)Y; thioether 2-20 (inferred)) [compound 338] | C (0.1 or more and less than 0.5)
9 | 36 (CRALLRGAPFHLAEK(COCH2); thioether 1-15; not fully specified; printed as (C)-RALLRGAPFHLAE-(K(acetyl))) [compound 36] | D (less than 0.1)
10 | 89 (HCWYERLQFHGHEAPFRVKV; not fully specified; Description of Artificial Sequence: Cyclic peptide) [compound 89] | A (0.7 or more)
11 | 118 (HCSYERLQFHGHEAHFRVK(COCH2)V; thioether 2-19 (inferred)) [compound 118] | C (0.1 or more and less than 0.5)
12 | 222 (HCSYERLQFHGHEAPFRVK(COCH2)R; thioether 2-19 (inferred)) [compound 222] | A (0.7 or more)
13 | 135 (HCSYEPLQFHGHEAPFRVK(COCH2)V; thioether 2-19 (inferred)) [compound 135] | C (0.1 or more and less than 0.5)
14 | 260 (ECVLQRLFFEGHLAPFILK(COCH2)I; thioether 2-19 (inferred)) [compound 260] | B (0.5 or more and less than 0.7)
15 | 286 (HCSYEKLQFHGHEAPFRVK(COCH2)V; thioether 2-19 (inferred)) [compound 286] | A (0.7 or more)
16 | 50 (WCRLKLLGHDAPFIK(COCH2)W; thioether 2-15 (inferred)) [compound 50] | B (0.5 or more and less than 0.7)
17 | 343 (QCWQQAYAYFPHVLAPFLVK(COCH2)S; thioether 2-20) [compound 343] | C (0.1 or more and less than 0.5)
18 | 113 (HCSYERLQFHGHEGPFRVK(COCH2)V; thioether 2-19 (inferred)) [compound 113] | C (0.1 or more and less than 0.5)
19 | 184 (HCSYERLQFHGHNAPFRVK(COCH2)V; thioether 2-19 via Ac) [compound 184] | A (0.7 or more)

Row | Substance | Evaluation result of binding affinity to FGFR
20 | 121 (HCSYPRLQFHGHEAPFRVK(COCH2)V; thioether 2-19 (inferred)) [compound 121] | A (0.7 or more)
21 | 303 (HCSYERLQFMGHEAPFRVK(COCH2)V; thioether 2-19 (inferred)) [compound 303] | A (0.7 or more)
22 | 274 (QCYVQLYFWGHPAPFYWDK(COCH2)T; thioether 2-19 (inferred)) [compound 274] | C (0.1 or more and less than 0.5)
23 | 228 (RK(COCH2)TWERLIFLGHIAPFWVCR; thioether 2-19 (inferred)) [compound 228] | C (0.1 or more and less than 0.5)
24 | 320 (HCTWERLIFLGHLAPFWVK(COCH2)R; thioether 2-19 (inferred)) [compound 320] | C (0.1 or more and less than 0.5)
25 | 52 (SCYERVVLFGWQAPYWAK(COCH2)P; thioether 2-18 (inferred)) [compound 52] | B (0.5 or more and less than 0.7)
26 | 123 (HCSYIRLQFHGHEAPFRVK(COCH2)V; thioether 2-19 (inferred)) [compound 123] | B (0.5 or more and less than 0.7)
27 | 306 (HCSYERLQFHGHEAMFRVK(COCH2)V; thioether 2-19 (inferred)) [compound 306] | C (0.1 or more and less than 0.5)
28 | 92 (HCTYERLQFHGHEAPFRVK(COCH2)V; thioether 2-19 via acetyl; not fully specified; printed as H-(C)-TYERLQFHGHEAPFRV-(K(acetyl))-V) [compound 92] | A (0.7 or more)
29 | 242 (HK(COCH2)TWERLIFLGHIAPFWVCS; thioether 2-19 (inferred)) [compound 242] | A (0.7 or more)
30 | 366 (HCQFNIHPWGAPFLVK(COCH2)E; thioether 2-16) [compound 366] | C (0.1 or more and less than 0.5)
31 | 126 (HCSYYRLQFHGHEAPFRVK(COCH2)V; thioether 2-19 (inferred)) [compound 126] | B (0.5 or more and less than 0.7)
32 | 194 (HCSYERLQFHGHEAPFFVK(COCH2)V; thioether 2-19 via Ac) [compound 194] | A (0.7 or more)
33 | 83 (HCPYERLQFHGHEAPFRVKV; not fully specified; Description of Artificial Sequence: Cyclic peptide) [compound 83] | A (0.7 or more)
34 | 233 (HK(COCH2)TWERLVFLGHIAPFWVCR; thioether 2-19 (inferred)) [compound 233] | B (0.5 or more and less than 0.7)
35 | 84 (HCLYERLQFHGHEAPFRVKV; not fully specified; Description of Artificial Sequence: Cyclic peptide) [compound 84] | A (0.7 or more)
36 | 107 (HCSYERLQFHNHEAPFRVK(COCH2)V; thioether 2-19 (inferred)) [compound 107] | C (0.1 or more and less than 0.5)
37 | 289 (HCSYERLQFHKHEAPFRVK(COCH2)V; thioether 2-19 (inferred)) [compound 289] | C (0.1 or more and less than 0.5)
